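How tested: cells in 96-well plates exposed to compound for 48 hours at five concentrations. Definition used: TGI = concentration required for complete inhibition of growth.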
What was measured:
Test in all cases: inhibition of tumour cell growth, NCI panel, 48 h
786-0 renal = system: 786-0 renal
HCC-2998 colon = system: HCC-2998 colon
HL-60(TB) leukemia = system: HL-60(TB) leukemia
HOP-62 NSCLC = system: HOP-62 NSCLC
HOP-92 NSCLC = system: HOP-92 NSCLC
K-562 leukemia = system: K-562 leukemia
KM12 colon = system: KM12 colon
MDA-N = system: MDA-N
PC-3 prostate = system: PC-3 prostate
SF-268 CNS = system: SF-268 CNS
SF-295 CNS = system: SF-295 CNS
SK-MEL-28 melanoma = system: SK-MEL-28 melanoma
SK-MEL-5 melanoma = system: SK-MEL-5 melanoma
SN12C renal = system: SN12C renal
T-47D breast = system: T-47D breast
U251 CNS = system: U251 CNS
BT-549 breast = system: BT-549 breast
SK-MEL-2 melanoma = system: SK-MEL-2 melanoma

Compound	TGI (786-0 renal) [µM]	TGI (HCC-2998 colon) [µM]	TGI (HL-60(TB) leukemia) [µM]	TGI (HOP-62 NSCLC) [µM]	TGI (HOP-92 NSCLC) [µM]	TGI (K-562 leukemia) [µM]	TGI (KM12 colon) [µM]	TGI (MDA-N) [µM]	TGI (PC-3 prostate) [µM]	TGI (SF-268 CNS) [µM]	TGI (SF-295 CNS) [µM]	TGI (SK-MEL-28 melanoma) [µM]	TGI (SK-MEL-5 melanoma) [µM]	TGI (SN12C renal) [µM]	TGI (T-47D breast) [µM]	TGI (U251 CNS) [µM]	TGI (BT-549 breast) [µM]	TGI (SK-MEL-2 melanoma) [µM]
COC(=O)c1ccccc1/C=C1\Cc2ccc3c(c2C1=O)CCC3	> 100	> 100	> 100	> 100	> 100	> 100	> 100	> 100	> 100	> 100	> 100	> 100	> 100	> 100	> 100	> 100	–	–
COC(=O)C1=C(C)NC(CF)=C(C(=O)OC)C1c1cccc2c(=O)c3ccccc3oc12 (stereo unspecified)	33.8	> 100	> 100	> 100	35.3	> 100	> 100	–	8.57	63.6	22.7	> 100	> 100	> 100	> 100	–	> 100	> 100
CC1=CP(=O)(OC(C)C)C=C(C)C1=C(Cl)Cl (stereo unspecified)	> 100	> 100	> 100	> 100	54.6	> 100	53.7	–	–	> 100	> 100	> 100	> 100	> 100	–	> 100	–	59
Nc1nc(N)c(N=Nc2ccccc2)c(=O)[nH]1	> 100	> 100	> 100	> 100	> 100	> 100	> 100	–	–	> 100	> 100	87.7	> 100	> 100	–	> 100	–	> 100
CSc1ccccc1NC1=NCCO1	> 100	> 100	> 100	> 100	> 100	> 100	> 100	> 100	> 100	> 100	> 100	> 100	> 100	> 100	> 100	> 100	–	> 100
CC(=O)c1ccc(NC(=O)C(=O)CC(=O)c2sc(-n3nc(-c4ccccc4)cc3-c3ccccc3)nc2C)cc1	> 100	> 100	> 100	> 100	–	> 100	> 100	–	–	> 100	> 100	–	–	> 100	–	> 100	–	> 100
O=C(O)CCC1C(=O)C2CCN1CC2 (stereo unspecified)	> 100	> 100	> 100	> 100	–	> 100	> 100	> 100	> 100	> 100	> 100	> 100	> 100	> 100	> 100	> 100	–	> 100
C#CC(O)/C=C/C(O)CCCC(O)CC#CC(O)C#CCCCCC(O)/C=C/CCCCCC(=O)CCCCCCCCCCCCCC(O)C(O)C#CC(=O)O (stereo unspecified)	> 25	> 25	> 25	> 25	> 25	> 25	> 25	> 25	> 25	> 25	> 25	> 25	> 25	> 25	> 25	> 25	–	> 25
C#CCC(O)c1ccc(OC)c(OCc2ccccc2)c1 (stereo unspecified)	> 100	> 100	> 100	> 100	> 100	> 100	> 100	> 100	> 100	> 100	> 100	> 100	> 100	> 100	> 100	> 100	–	> 100
CSc1ncc2c(C#N)c3n(C)c4ccccc4n3c(=O)c2n1	> 100	> 100	> 100	> 100	> 100	> 100	> 100	–	> 100	> 100	> 100	> 100	> 100	> 100	> 100	> 100	> 100	> 100
Cc1ccc(NC(=O)CC(=O)N2N=C(N(c3ccccc3)c3ccccc3)CC2c2ccccc2)cc1 (stereo unspecified)	> 100	> 100	> 100	> 100	> 100	> 100	> 100	–	> 100	> 100	> 100	> 100	> 100	–	> 100	> 100	> 100	> 100
COc1ccc(NC(=O)CSc2nc(C)nc3c2sc(=S)n3-c2ccccc2)cc1	> 10	> 10	> 10	> 10	> 10	> 10	> 10	> 10	> 10	> 10	> 10	> 10	> 10	> 10	> 10	> 10	–	–
C=C1C(=O)O[C@H]2C(=O)[C@H](C)CCC/C(C)=C/CC[C@@]3(C)O[C@@H]3C[C@@H]12	3.02	–	6.8	24.3	2.99	10.2	22.3	11.5	21.2	16.4	27.3	–	20.7	18.3	4.35	13.3	–	20.9
CN1C(=O)C(O)CC1c1ccccc1F (stereo unspecified)	> 100	> 100	> 100	> 100	> 100	> 100	> 100	> 100	> 100	–	> 100	> 100	> 100	> 100	–	> 100	> 100	> 100
c1ccc(C2(c3cc4ccccc4[nH]3)OCCO2)nc1	> 100	> 100	> 100	> 100	> 100	–	> 100	–	> 100	> 100	> 100	> 100	> 100	–	> 100	> 100	> 100	> 100
CCN(CC)CCC(=O)c1ccc(Cl)c(Cl)c1	31.9	> 100	> 100	> 100	30.6	> 100	> 100	–	> 100	63.4	> 100	30.5	35.5	> 100	51.1	> 100	36.3	–
COC1(OC)CCCCCCCCC(OC)(OC)CCCCCCCC1	> 100	> 100	> 100	> 100	> 100	> 100	> 100	> 100	> 100	> 100	> 100	> 100	> 100	> 100	> 100	> 100	–	> 100
Cc1c(N)c(C#N)c2n(C)c3ncccc3n2c1=O	> 100	> 100	> 100	> 100	> 100	> 100	> 100	–	–	> 100	> 100	> 100	> 100	> 100	–	> 100	–	> 100
CCN(CC)CC(C(C)=O)C(c1ccccc1)c1c(O)c2ccccc2oc1=O (stereo unspecified)	> 100	> 100	> 100	> 100	–	> 100	> 100	–	–	> 100	> 100	> 100	> 100	> 100	–	> 100	–	> 100
C[n+]1c(-c2ccc(/C=N\Nc3ccnc(N/N=C/c4ccc(-c5cn6ccsc6[n+]5C)cc4)n3)cc2)cn2ccsc21	32.8	77.2	57.4	51.6	> 100	> 100	84.5	26.7	> 100	–	–	–	35.4	> 100	–	94.5	–	–
Cn1c(=O)oc2cc(C(O)CN3CCN(Cc4ccc5c(c4)OCO5)CC3)ccc21 (stereo unspecified)	> 100	> 100	> 100	> 100	> 100	> 100	> 100	–	> 100	> 100	> 100	> 100	–	> 100	> 100	> 100	> 100	–
CC(C)(C)OC(=O)NC(Cc1ccc(OC(C)(C)C)cc1)C(=O)N[C@H]1CC[C@H](C(=O)O)C1 (stereo partly specified)	> 100	> 100	> 100	> 100	–	> 100	> 100	> 100	> 100	> 100	> 100	> 100	> 100	> 100	–	> 100	> 100	> 100
CC12CCC(=O)N1[C@@H](c1ccccc1)[C@@H](c1ccccc1)O2 (stereo partly specified)	> 100	> 100	> 100	> 100	> 100	> 100	> 100	–	–	> 100	> 100	–	> 100	> 100	–	–	–	> 100
O=[N+]([O-])c1ccccc1S(=O)(=O)c1cccc2c1NCCC2	> 100	> 100	> 100	> 100	> 100	> 100	> 100	> 100	> 100	> 100	> 100	> 100	52.3	> 100	–	–	> 100	> 100
Cc1cc2c(cc1Cl)SC(NNC(=O)c1ccccc1)=NS2(=O)=O	> 10	> 10	> 10	> 10	–	> 10	> 10	–	> 10	> 10	> 10	> 10	> 10	> 10	> 10	> 10	> 10	> 10
COC(=O)C1=C(N)C2=C(N)Oc3ccccc3C2CC1=C(C#N)C#N (stereo unspecified)	> 100	32.9	> 100	> 100	–	57.3	29.5	–	> 100	89.4	90.2	–	52.7	92.6	67.1	> 100	58.2	> 100
C=C(Cl)[C@](Cl)(CBr)CC[C@@H](Br)C(C)(C)Cl	0.552	2.93	2.06	0.9	1.1	16.3	2.26	2.47	1.18	2.18	2.23	3.27	24.9	17.6	–	0.335	11.7	–
Cc1cc(N(C)c2ccccc2)nc(N(C)c2ccccc2)n1	> 100	79.6	59.6	72.8	–	> 100	45.7	> 100	> 100	> 100	92.5	98	69.1	> 100	–	> 100	–	36.9
S=c1[nH]nc(COc2ccc(Cl)cc2)n1-c1ccccc1	> 100	> 100	> 100	> 100	> 100	> 100	> 100	> 100	> 100	> 100	> 100	> 100	–	> 100	> 100	> 100	–	> 100
[N-]=[N+]=NC1(Cc2ccccc2)C(=O)Nc2ccccc2C1=O (stereo unspecified)	> 100	> 100	> 100	> 100	> 100	> 100	> 100	–	–	> 100	> 100	> 100	> 100	> 100	–	> 100	–	> 100

Reference: PubChem BioAssay (NCI)
